Assay results as given in patent US20170008888A1 (KYORIN PHARMACEUTICAL CO., LTD., priority 2014, published 2017).
Read-outs that look alike come from different tables or passages of the source.

How the values were obtained:
Assay type in all cases: binding
TAO2 = target: T1, TAO2 (Homo sapiens, UniProt Q9UL54); assay: Probe-based (AX9989) kinase profiling in Jurkat lysate: TAO2
T1 construct: screened for activity against several kinases in Jurkat cells; endogenous in cells; host or cells: Jurkat cell lysate
T1 sequence (Q9UL54 1-1235): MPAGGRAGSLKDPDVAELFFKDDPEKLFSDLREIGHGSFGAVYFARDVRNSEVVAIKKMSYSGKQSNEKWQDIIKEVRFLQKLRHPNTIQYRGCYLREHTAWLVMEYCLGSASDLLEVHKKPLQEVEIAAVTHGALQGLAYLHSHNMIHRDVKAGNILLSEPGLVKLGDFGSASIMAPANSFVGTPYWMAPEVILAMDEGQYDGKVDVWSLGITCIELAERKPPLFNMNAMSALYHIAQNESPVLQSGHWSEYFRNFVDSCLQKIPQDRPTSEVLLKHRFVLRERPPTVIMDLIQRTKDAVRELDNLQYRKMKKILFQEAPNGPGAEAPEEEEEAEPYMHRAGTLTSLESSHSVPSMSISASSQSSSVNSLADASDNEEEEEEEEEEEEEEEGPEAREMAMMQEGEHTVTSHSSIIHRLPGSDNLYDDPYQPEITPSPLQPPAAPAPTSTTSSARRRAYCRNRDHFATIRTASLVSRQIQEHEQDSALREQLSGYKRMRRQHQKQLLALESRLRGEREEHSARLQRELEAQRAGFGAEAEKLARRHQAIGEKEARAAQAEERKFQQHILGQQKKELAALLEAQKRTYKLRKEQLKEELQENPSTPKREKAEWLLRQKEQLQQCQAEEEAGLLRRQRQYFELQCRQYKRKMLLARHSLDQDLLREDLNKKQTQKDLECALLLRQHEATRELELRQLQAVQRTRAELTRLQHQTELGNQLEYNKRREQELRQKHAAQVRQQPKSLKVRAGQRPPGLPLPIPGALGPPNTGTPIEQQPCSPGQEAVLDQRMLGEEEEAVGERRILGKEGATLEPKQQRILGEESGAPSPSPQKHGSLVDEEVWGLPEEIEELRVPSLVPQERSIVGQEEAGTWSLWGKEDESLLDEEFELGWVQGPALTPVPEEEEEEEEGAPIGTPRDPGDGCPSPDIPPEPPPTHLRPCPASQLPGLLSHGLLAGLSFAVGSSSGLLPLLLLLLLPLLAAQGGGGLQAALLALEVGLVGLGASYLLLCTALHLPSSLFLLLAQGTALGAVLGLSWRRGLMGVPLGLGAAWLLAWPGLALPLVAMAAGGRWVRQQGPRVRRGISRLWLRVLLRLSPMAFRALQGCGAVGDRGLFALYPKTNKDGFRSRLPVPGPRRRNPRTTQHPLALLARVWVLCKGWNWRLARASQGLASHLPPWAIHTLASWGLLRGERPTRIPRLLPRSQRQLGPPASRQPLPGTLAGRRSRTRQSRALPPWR
Summary of the method: (§1)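 Read-out: LC/MS intensity of desthiobiotinylated kinase active-site peptides, percent inhibition normalized to no-compound lysate. Jurkat lysate with 20 mM MnCl2 received compound for 15 min at room temperature, then 5 μM AX9989 probe; duplicates.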

ABL or ARG = assay: Probe-based (AX9989) kinase profiling in Jurkat lysate: ABL or ARG; details: for Kinase inhibition % at indicated screening concentration: ABL or ARG: screening concentration 1.0 μM
Summary of the method: as §1

AurA = target: T2, AurA (Homo sapiens, UniProt O14965); assay: Probe-based (AX9989) kinase profiling in Jurkat lysate: AurA
T2 construct: screened for activity against several kinases in Jurkat cells; endogenous in cells; host or cells: Jurkat cell lysate
T2 sequence (O14965 1-403): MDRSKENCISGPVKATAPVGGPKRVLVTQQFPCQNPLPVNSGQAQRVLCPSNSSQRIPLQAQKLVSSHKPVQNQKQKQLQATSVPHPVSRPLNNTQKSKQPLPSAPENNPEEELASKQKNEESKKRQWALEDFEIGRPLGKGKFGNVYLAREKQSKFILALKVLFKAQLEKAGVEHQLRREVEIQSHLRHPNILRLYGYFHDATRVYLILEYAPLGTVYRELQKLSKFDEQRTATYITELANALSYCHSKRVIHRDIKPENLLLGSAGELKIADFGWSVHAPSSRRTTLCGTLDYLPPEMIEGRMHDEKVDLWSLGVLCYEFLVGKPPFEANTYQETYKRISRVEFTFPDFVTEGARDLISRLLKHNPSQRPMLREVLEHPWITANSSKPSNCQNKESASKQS
Summary of the method: as §1

JAK1 = target: T3, JAK1 (Homo sapiens, UniProt P23458); assay: Probe-based (AX9989) kinase profiling in Jurkat lysate: JAK1
T3 construct: screened for activity against several kinases in Jurkat cells; endogenous in cells; host or cells: Jurkat cell lysate
T3 sequence (P23458 whole entry): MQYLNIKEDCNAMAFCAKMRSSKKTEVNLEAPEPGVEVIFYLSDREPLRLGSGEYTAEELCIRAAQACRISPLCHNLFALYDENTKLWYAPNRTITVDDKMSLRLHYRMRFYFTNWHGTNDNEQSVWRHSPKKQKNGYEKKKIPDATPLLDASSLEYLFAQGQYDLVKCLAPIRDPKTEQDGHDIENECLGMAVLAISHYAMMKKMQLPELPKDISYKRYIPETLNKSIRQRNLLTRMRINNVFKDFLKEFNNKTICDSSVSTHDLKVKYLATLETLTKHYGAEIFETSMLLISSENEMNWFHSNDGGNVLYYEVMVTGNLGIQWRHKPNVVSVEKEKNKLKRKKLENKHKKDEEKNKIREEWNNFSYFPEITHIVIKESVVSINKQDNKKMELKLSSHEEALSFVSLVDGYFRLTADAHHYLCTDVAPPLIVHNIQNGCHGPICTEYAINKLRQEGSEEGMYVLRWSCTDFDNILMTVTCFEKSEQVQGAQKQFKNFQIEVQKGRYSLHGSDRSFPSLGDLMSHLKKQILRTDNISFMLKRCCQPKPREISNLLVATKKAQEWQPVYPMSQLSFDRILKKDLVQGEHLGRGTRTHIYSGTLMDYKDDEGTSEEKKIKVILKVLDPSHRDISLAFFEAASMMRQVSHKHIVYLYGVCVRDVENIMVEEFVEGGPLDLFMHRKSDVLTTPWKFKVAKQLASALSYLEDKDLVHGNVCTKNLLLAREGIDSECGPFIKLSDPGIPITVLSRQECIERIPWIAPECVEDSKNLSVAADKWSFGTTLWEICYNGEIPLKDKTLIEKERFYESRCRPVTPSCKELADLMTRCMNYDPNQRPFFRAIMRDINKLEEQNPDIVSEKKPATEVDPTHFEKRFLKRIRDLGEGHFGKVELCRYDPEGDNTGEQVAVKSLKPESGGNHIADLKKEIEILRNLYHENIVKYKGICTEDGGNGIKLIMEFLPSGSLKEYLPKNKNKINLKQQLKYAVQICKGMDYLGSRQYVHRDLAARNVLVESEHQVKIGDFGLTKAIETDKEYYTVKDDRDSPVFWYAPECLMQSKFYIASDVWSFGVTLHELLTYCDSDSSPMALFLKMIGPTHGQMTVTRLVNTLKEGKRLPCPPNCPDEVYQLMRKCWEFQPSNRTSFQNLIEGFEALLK
Summary of the method: as §1

ACK = target: T4, ACK (Homo sapiens, UniProt Q07912); assay: Probe-based (AX9989) kinase profiling in Jurkat lysate: ACK
T4 construct: screened for activity against several kinases in Jurkat cells; endogenous in cells; host or cells: Jurkat cell lysate
T4 sequence (Q07912 whole entry): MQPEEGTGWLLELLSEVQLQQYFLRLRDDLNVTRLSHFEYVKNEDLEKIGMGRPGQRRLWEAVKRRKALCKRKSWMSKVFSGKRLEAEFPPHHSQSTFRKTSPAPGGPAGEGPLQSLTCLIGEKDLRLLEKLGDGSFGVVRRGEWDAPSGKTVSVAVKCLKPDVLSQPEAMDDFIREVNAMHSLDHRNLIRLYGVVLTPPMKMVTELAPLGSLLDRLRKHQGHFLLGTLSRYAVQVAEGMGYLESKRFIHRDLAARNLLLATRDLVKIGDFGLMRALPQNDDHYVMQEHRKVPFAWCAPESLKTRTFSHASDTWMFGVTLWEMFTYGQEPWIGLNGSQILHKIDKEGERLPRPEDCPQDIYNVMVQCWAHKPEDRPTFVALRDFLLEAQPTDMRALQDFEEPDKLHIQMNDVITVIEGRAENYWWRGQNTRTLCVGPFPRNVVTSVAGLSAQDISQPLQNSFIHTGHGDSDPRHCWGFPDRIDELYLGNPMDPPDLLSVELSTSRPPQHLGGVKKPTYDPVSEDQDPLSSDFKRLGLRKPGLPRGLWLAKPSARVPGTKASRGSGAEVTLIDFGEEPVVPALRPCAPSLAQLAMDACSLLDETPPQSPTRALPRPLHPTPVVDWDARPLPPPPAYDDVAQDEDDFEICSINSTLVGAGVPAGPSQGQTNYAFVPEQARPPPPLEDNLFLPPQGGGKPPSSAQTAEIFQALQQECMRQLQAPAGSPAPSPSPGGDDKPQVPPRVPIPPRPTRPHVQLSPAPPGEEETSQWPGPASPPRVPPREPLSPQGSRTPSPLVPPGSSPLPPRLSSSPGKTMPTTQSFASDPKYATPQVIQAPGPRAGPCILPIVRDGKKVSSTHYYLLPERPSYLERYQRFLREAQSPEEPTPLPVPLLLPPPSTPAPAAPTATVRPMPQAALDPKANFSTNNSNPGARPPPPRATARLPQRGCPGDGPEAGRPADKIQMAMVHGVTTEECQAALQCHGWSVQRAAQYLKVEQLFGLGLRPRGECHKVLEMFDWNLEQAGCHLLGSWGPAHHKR
Summary of the method: as §1

ERK5 = target: T5, ERK5 (Homo sapiens, UniProt Q13164); assay: Probe-based (AX9989 acyl phosphate ATP probe) kinase profiling in Jurkat lysate: ERK5; details: for IC50: Jurkat lysate
T5 construct: screened for activity against several kinases in Jurkat cells; endogenous in cells; host or cells: Jurkat cell lysate
T5 sequence (Q13164 whole entry): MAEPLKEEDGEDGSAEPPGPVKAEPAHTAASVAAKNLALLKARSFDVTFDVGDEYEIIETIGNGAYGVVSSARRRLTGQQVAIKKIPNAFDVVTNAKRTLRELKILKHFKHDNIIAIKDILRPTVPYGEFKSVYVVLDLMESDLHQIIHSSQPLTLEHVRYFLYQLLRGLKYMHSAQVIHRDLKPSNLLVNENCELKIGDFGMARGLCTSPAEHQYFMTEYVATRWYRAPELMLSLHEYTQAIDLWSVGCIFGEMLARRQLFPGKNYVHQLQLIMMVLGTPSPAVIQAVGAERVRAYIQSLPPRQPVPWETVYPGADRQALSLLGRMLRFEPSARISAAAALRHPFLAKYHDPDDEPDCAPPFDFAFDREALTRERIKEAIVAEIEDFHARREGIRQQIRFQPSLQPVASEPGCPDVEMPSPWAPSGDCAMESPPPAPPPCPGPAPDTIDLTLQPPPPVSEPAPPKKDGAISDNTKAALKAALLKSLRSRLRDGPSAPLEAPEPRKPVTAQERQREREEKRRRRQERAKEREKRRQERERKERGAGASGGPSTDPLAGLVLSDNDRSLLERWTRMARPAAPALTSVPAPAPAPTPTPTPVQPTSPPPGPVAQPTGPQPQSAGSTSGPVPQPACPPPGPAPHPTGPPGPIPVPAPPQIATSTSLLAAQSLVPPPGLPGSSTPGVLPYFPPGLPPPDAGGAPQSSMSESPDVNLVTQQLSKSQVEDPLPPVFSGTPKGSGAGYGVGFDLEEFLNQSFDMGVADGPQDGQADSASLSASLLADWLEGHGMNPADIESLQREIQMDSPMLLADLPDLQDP
Summary of the method: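 ERK5 IC50 values came from percent inhibition at the screening concentration, measured as loss of LC/MS signal of probe-labelled active-site peptides. Compound was added for 15 min at room temperature to Jurkat lysate (5 mg/ml, 20 mM MnCl2) before labelling with AX9989 ATP acyl phosphate probe at 5 μM.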

AMPKa1 or AMPKa2 = assay: Probe-based (AX9989) kinase profiling in Jurkat lysate: AMPKa1 or AMPKa2; details: for Kinase inhibition % at indicated screening concentration: AMPKa1 or AMPKa2: screening concentration 1.0 μM
Summary of the method: as §1

AurB or AurC = assay: Probe-based (AX9989) kinase profiling in Jurkat lysate: AurB or AurC; details: for Kinase inhibition % at indicated screening concentration: AurB or AurC: screening concentration 1.0 μM
Summary of the method: as §1

[1] = screening concentration 1.0 μM, read-out: Kinase inhibition % at indicated screening concentration: TAO2
[2] = screening concentration 1.0 μM, read-out: Kinase inhibition % at indicated screening concentration: AurA
[3] = screening concentration 1.0 μM, read-out: Kinase inhibition % at indicated screening concentration: JAK1
[4] = screening concentration 1.0 μM, read-out: Kinase inhibition % at indicated screening concentration: ACK
[5] = calculated from percent inhibition of AX9989 labeling and the screening concentration
[6] = screening concentration 1.0 μM, read-out: Kinase inhibition % at indicated screening concentration: ERK5
[7] = calculated from percent inhibition and screening concentration, AX9989 probe

| Structure (SMILES) | inhibition at 1 µM (TAO2; [1]) [%] | Kinase inhibition % at indicated screening concentration: ABL or ARG (ABL or ARG) | inhibition at 1 µM (AurA; [2]) [%] | inhibition at 1 µM (JAK1; [3]) [%] | inhibition at 1 µM (ACK; [4]) [%] | IC50 (ERK5; [5]) [µM] | inhibition at 1 µM (ERK5; [6]) [%] | Kinase inhibition % at indicated screening concentration: AMPKa1 or AMPKa2 (AMPKa1 or AMPKa2) | Kinase inhibition % at indicated screening concentration: AurB or AurC (AurB or AurC) | IC50 (ERK5; [7]) [µM] | other results |
| --- | --- | --- | --- | --- | --- | --- | --- | --- | --- | --- | --- |
| CCOc1cc(Cl)ccc1Nc1cc2c(cn1)N(C)C(=O)c1ccccc1N2C [Compound 104] | ≤ 35 | E (E is ≦35%) | ≤ 35 | ≤ 35 | ≤ 35 | > 0.5 | 35 to 50 | E (E is ≦35%) | E (E is ≦35%) |  |  |
| CN1C(=O)c2ccccc2N(C)c2cc(N[C@H]3CC[C@H](NC(=O)N4CCCC4)CC3)ncc21 [Compound 60] | ≤ 35 | E (E is ≦35%) | ≤ 35 | ≤ 35 | ≤ 35 | 0.101 to 0.5 | 75 to 90 | E (E is ≦35%) | E (E is ≦35%) |  |  |
| CCOc1cc(C(=O)N2CC[C@@H](N(C)C)C2)ccc1Nc1cc2c(cn1)N(C)S(=O)(=O)c1ccccc1N2C [Compound T3] |  |  |  |  |  |  |  |  |  | > 0.5 | inhibition at 10 µM (TAO2; screening concentration 10 μM, read-out: TAO2 Inhibition % at indicated screening concentration): ≤ 35%; ABL or ARG Inhibition % at indicated screening concentration (ABL or ARG; screening concentration 10 μM): E (E is ≦35%); inhibition at 10 µM (AurA; screening concentration 10 μM, read-out: AurA Inhibition % at indicated screening concentration): ≤ 35%; inhibition at 10 µM (JAK1; screening concentration 10 μM, read-out: JAK1 Inhibition % at indicated screening concentration): ≤ 35%; inhibition at 10 µM (ACK; screening concentration 10 μM, read-out: ACK Inhibition % at indicated screening concentration): ≤ 35%; inhibition at 10 µM (ERK5; screening concentration 10 μM, read-out: ERK5 Inhibition % at indicated screening concentration): ≤ 35%; AMPKa1 or AMPKa2 Inhibition % at indicated screening concentration (AMPKa1 or AMPKa2; screening concentration 10 μM): E (E is ≦35%); AurB or AurC Inhibition % at indicated screening concentration (AurB or AurC; screening concentration 10 μM): E (E is ≦35%) |
| CCOc1cc(C(=O)N2CCC(N3CCCC3)CC2)ccc1Nc1cc2c(cn1)N(C)C(=O)c1scnc1N2C [Compound 34] | ≤ 35 | E (E is ≦35%) | ≤ 35 | ≤ 35 | ≤ 35 |  | > 90 | E (E is ≦35%) | E (E is ≦35%) |  |  |
| CCOc1cc(C(=O)N2CCN(C3CCN(C)CC3)CC2)ccc1Nc1cc2c(cn1)N(C)C(=O)c1ccccc1N2S(C)(=O)=O [Compound T87] |  |  |  |  |  |  |  |  |  | > 0.5 | inhibition at 1 µM (TAO2; screening concentration 1 μM, read-out: TAO2 Inhibition % at indicated screening concentration): ≤ 35%; ABL or ARG Inhibition % at indicated screening concentration (ABL or ARG; screening concentration 1 μM): E (E is ≦35%); inhibition at 1 µM (AurA; screening concentration 1 μM, read-out: AurA Inhibition % at indicated screening concentration): ≤ 35%; inhibition at 1 µM (JAK1; screening concentration 1 μM, read-out: JAK1 Inhibition % at indicated screening concentration): ≤ 35%; inhibition at 1 µM (ACK; screening concentration 1 μM, read-out: ACK Inhibition % at indicated screening concentration): ≤ 35%; inhibition at 1 µM (ERK5; screening concentration 1 μM, read-out: ERK5 Inhibition % at indicated screening concentration): 50 to 75%; AMPKa1 or AMPKa2 Inhibition % at indicated screening concentration (AMPKa1 or AMPKa2; screening concentration 1 μM): E (E is ≦35%); AurB or AurC Inhibition % at indicated screening concentration (AurB or AurC; screening concentration 1 μM): E (E is ≦35%) |
